Measurements reported in the supplement of paper PMC10307832.

Assays:
Assay in all cases: relative viability (nuclei count vs DMSO), 5 days (fraction); higher = more cells survive
[1] = compound: C/C(=N\NC(=S)N1CCC1)/C2=CC=CC=N2 + Cc1nc(Nc2ncc(C(=O)Nc3c(C)cccc3Cl)s2)cc(N2CCN(CCO)CC2)n1 [Dasatinib] (partner 0.075 µM)
Summary of the method: (§1)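 The day after seeding in 1536-well plates, lung cancer cell lines were treated by pin tool with a single drug, or with a fixed anchor-drug dose together with five library-drug doses (not always all listed) in √10 steps. After 5 days, a combined fix-and-stain solution (final 0.05% Triton X-100, 1% formaldehyde, 1 ug/ml Hoechst) was added. Nuclei counted on 4× images gave relative viability as treated counts over vehicle counts, reported as the median of duplicate plates.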

[2] = compound: C/C(=N\NC(=S)N1CCC1)/C2=CC=CC=N2 + CC1(C)CCC(c2ccc(Cl)cc2)=C(CN2CCN(c3ccc(C(=O)NS(=O)(=O)c4ccc(N[C@H](CCN5CCOCC5)CSc5ccccc5)c(S(=O)(=O)C(F)(F)F)c4)cc3)CC2)C1 [Navitoclax] (partner 0.5 µM)
Summary of the method: as §1

[3] = compound: C/C(=N\NC(=S)N1CCC1)/C2=CC=CC=N2 + O=C(CCCCCCC(=O)Nc1ccccc1)NO [Vorinostat] (partner 1 µM)
Summary of the method: as §1

[4] = compound: C/C(=N\NC(=S)N1CCC1)/C2=CC=CC=N2 + C[C@@H](Oc1cc(-c2cnn(C3CCNCC3)c2)cnc1N)c1c(Cl)ccc(F)c1Cl [Crizotinib] (partner 1 µM)
Summary of the method: as §1

Cell Line | relative viability ([1]; first compound 0.05 µM) | relative viability ([1]; first compound 0.1581 µM) | relative viability ([1]; first compound 0.5 µM) | relative viability ([1]; first compound 1.581 µM) | relative viability ([1]; first compound 5 µM) | relative viability ([2]; first compound 0.05 µM) | relative viability ([2]; first compound 0.1581 µM) | relative viability ([2]; first compound 0.5 µM) | relative viability ([2]; first compound 1.581 µM) | relative viability ([2]; first compound 5 µM) | relative viability ([3]; first compound 0.05 µM) | relative viability ([3]; first compound 0.1581 µM) | relative viability ([3]; first compound 0.5 µM) | relative viability ([3]; first compound 1.581 µM) | relative viability ([3]; first compound 5 µM) | relative viability ([4]; first compound 0.05 µM) | relative viability ([4]; first compound 0.1581 µM) | relative viability ([4]; first compound 0.5 µM) | relative viability ([4]; first compound 1.581 µM) | relative viability ([4]; first compound 5 µM)
NCI-H838 | 0.203 | 0.198 | 0.223 | 0.201 | 0.187 | 0.259 | 0.258 | 0.229 | 0.192 | 0.225 | 0.286 | 0.266 | 0.249 | 0.17 | 0.178 | 0.174 | 0.175 | 0.19 | 0.18 | 0.15
NCI-H1437 | 0.0967 | 0.128 | 0.0689 | 0.0833 | 0.122 | 0.166 | 0.142 | 0.152 | 0.109 | 0.0981 | 0.32 | 0.334 | 0.251 | 0.218 | 0.188 | 0.138 | 0.133 | 0.128 | 0.129 | 0.0811
NCI-H1648 | – | – | – | – | – | – | – | – | – | – | 0.217 | 0.48 | 0.339 | 0.342 | 0.245 | – | – | – | – | –
LCLC-103H | 0.123 | 0.136 | 0.156 | 0.103 | 0.164 | – | – | – | – | – | 0.344 | 0.321 | 0.286 | 0.254 | 0.296 | 0.838 | 0.917 | 0.321 | 0.335 | 0.3
SW 900 | 0.129 | 0.134 | 0.112 | 0.0964 | 0.248 | – | – | – | – | – | 0.145 | 0.149 | 0.0776 | 0.125 | 0.183 | – | – | – | – | –
IA-LM | – | – | – | – | – | 0.0776 | 0.062 | 0.0799 | 0.0503 | 0.0417 | 0.0691 | 0.0691 | 0.0591 | 0.059 | 0.051 | 0.0891 | 0.0621 | 0.0599 | 0.0518 | 0.0471
NCI-H1563 | 0.394 | 0.462 | 0.408 | 0.229 | 0.312 | – | – | – | – | – | – | – | – | – | – | 0.604 | 0.557 | 0.526 | 0.553 | 0.527
HCC-44 | – | – | – | – | – | 0.782 | 0.311 | 0.194 | 0.222 | 0.258 | 0.894 | 1.02 | 0.51 | 0.471 | 0.411 | 0.783 | 0.208 | 0.186 | 0.209 | 0.229
NCI-H358 | 0.0836 | 0.0975 | 0.102 | 0.0651 | 0.092 | – | – | – | – | – | 0.0785 | 0.0651 | 0.0611 | 0.0639 | 0.0677 | 0.13 | 0.157 | 0.14 | 0.102 | 0.144
ABC-1 | 0.213 | 0.306 | 0.195 | 0.193 | 0.225 | – | – | – | – | – | 0.268 | 0.339 | 0.308 | 0.275 | 0.302 | 0.23 | 0.189 | 0.2 | 0.172 | 0.142
NCI-H522 | – | 0.332 | 0.494 | – | 0.416 | – | – | – | – | – | 0.272 | 0.322 | 0.265 | 0.369 | 0.411 | – | – | – | – | –
NCI-H1792 | 0.483 | 0.294 | 0.256 | 0.271 | 0.196 | 0.256 | 0.274 | 0.127 | 0.0935 | 0.084 | – | – | – | – | – | 0.38 | 0.453 | 0.245 | 0.186 | 0.108
